Patent US8815857B2 (Boehringer Ingelheim International GmbH, priority 2011, dated 2014)
Values after ≈ are worked out from the molar mass of the structure shown.

Assay: Assessment of solubility: HT solubility in pION buffer, UV spectrophotometry
Conditions: for solubility: kinetic from dmso stock
[1] = pION system solution buffer, pH 7.4, pH 7.4, aqueous buffer, Solubility (pH 7.4), pH 7.4 buffer, 16-19 h incubation, 1.0% DMSO
[2] = pION system solution buffer, pH 4.5, pH 4.5, aqueous buffer, Solubility (pH 4.5), pH 4.5 buffer, 16-19 h incubation, 1.0% DMSO

| SMILES | Solubility (pH 4.5) (pH 4.5 buffer, 16-19 h incubation, 1.0% DMSO) [μg/mL] | solubility [1] [µg/mL] | solubility [2] [µg/mL] | solubility (pH 6.8, aqueous buffer, Solubility (pH 6.8), pH 6.8) [µg/mL] |
| --- | --- | --- | --- | --- |
| Cc1cc(CN2CCCCC2)ccc1COc1c(C)cccc1-c1csc(N2CCC(C(=O)O)CC2)n1 [Compound 16] |  | 33 (≈ 63.5 µM) | > 51 |  |
| Cc1ccc(OCc2ccc(CN3CCOCC3)cc2C)c(-c2csc(N3CCC[C@@H](C(=O)O)C3)n2)c1 [Compound 19] |  | > 52 | > 52 |  |
| Cc1cc(CN2CCC(C(N)=O)CC2)ccc1COc1c(C)cccc1-c1csc(N2CCC(C(=O)O)CC2)n1 [Compound 93] |  | > 56 | > 56 |  |
| Cc1cc(CN2CCS(=O)(=O)CC2)ccc1COc1ccc(Cl)cc1-c1csc(N2CC3C(C2)C3C(=O)O)n1 (centres unmarked) [Compound 128] |  | > 58 | 0.45 (≈ 0.765 µM) |  |
| Cc1cc(CN2CCS(=O)(=O)CC2)ccc1COc1ccc(F)cc1-c1csc(N2CCC(C(=O)O)C(C(F)(F)F)C2)n1 (centres unmarked) [Compound 155] |  | > 63 | 0.3 (≈ 0.468 µM) |  |
| Cc1cc(CN2CCCCC2)ccc1COc1ccc(C#N)cc1-c1csc(N2CCC(C(=O)O)CC2)n1 [Compound 169] |  | > 57 | > 57 |  |
| Cc1cc(CN2CCC(O)CC2)ccc1COc1ccc(C#N)cc1-c1csc(N2CCC(C(=O)O)CC2)n1 [Compound 170] |  | 24 (≈ 43.9 µM) | 37 (≈ 67.7 µM) |  |
| Cc1ccc(OCc2ccc(CN3CCOCC3)cc2C)c(-c2csc(N3CCC(C(=O)O)C(C(F)(F)F)C3)n2)c1 (centres unmarked) [Compound 213] |  | 41 (≈ 69.5 µM) | 32 (≈ 54.3 µM) |  |

Further lines, results first:

| Solubility (pH 4.5) (pH 4.5 buffer, 16-19 h incubation, 1.0% DMSO) [μg/mL] | solubility [1] [µg/mL] | solubility [2] [µg/mL] | solubility (pH 6.8, aqueous buffer, Solubility (pH 6.8), pH 6.8) [µg/mL] | SMILES |
| --- | --- | --- | --- | --- |
| >62 | 42 (≈ 80.8 µM) |  |  | Cc1ccc(OCc2ccc(C(=O)N3CCCC3)cc2C)c(-c2csc(N3CCC(C(=O)O)CC3)n2)c1 [Compound 7] |
|  | > 63 | > 63 |  | Cc1ccc(OCc2ccc(CN3CCCCC3)cc2C)c(-c2csc(N3CCC(C(=O)O)CC3)n2)c1 [Compound 18] |
|  | > 63 | > 63 |  | COCCN(C)Cc1ccc(COc2ccc(C)cc2-c2csc(N3CCC(C(=O)O)CC3)n2)c(C)c1 [Compound 27] |
|  | > 55 | > 55 |  | Cc1ccc(OCc2ccc(CN3CCC(O)CC3)cc2C)c(-c2csc(N3CCC(C(=O)O)CC3)n2)c1 [Compound 175] |
|  |  | 0.45 (≈ 0.747 µM) | 60 (≈ 99.5 µM) | CCc1cc(C(=O)N2CCN(C)C(=O)C2)ccc1COc1ccc(C)cc1-c1csc(N2C[C@H]3CC[C@@H](C2)[C@H]3C(=O)O)n1 [Compound 295] |
